Test results taken from ChEMBL document CHEMBL3271995, “Antineoplastic agents. 2. Structure-activity studies on N-protected vinyl, 1,2-dibromoethyl, and cyanomethyl esters of several amino acids” (J Med Chem, 1977).
Calls of active or inactive are those of the source. The calls are words filed in the database; no cut-off is given here.

Experiments:
[1] = tested on: Ehrlich; assay: Antineoplastic activity against mouse EAC allografted in CF1 mouse assessed as animal survival on day 7 measured at 33 mg/kg; type: functional, organism-based; set-up: dose 33 mg/kg
[2] = tested on: Ehrlich; assay: Antineoplastic activity against mouse EAC allografted in CF1 mouse assessed as packed cell volume on day 7 measured at 33 mg/kg (reference value: 32.75 +/- 7.87%); type: functional
[3] = tested on: Ehrlich; assay: Antineoplastic activity against mouse EAC allografted in CF1 mouse assessed as ascites volume on day 7 measured at 33 mg/kg (reference value: 4.1 +/- 1.24 mL); type: functional
[4] = tested on: Ehrlich; assay: Antineoplastic activity against mouse EAC allografted in CF1 mouse assessed as tumor growth inhibition on day 7 measured at 33 mg/kg; type: functional; settings: 168 h, read-out: TGI
[5] = Acute toxicity in CF1 mouse; type: organism-based; settings: in vivo
[6] = tested on: P388; assay: Antitumor activity against mouse P388 cells allografted in DBA/2 mouse assessed as animal survival days at 20 mg/kg/day, ip; type: functional; settings: route intraperitoneal
[7] = tested on: P388; assay: Antitumor activity against mouse P388 cells allografted in DBA/2 mouse assessed as median survival time of treated versus control mice (T/C) at 20 mg/kg/day, ip; type: functional; settings: route intraperitoneal
[8] = tested on: W256; assay: Antitumor activity against rat Walker 256 cells allografted in Sprague-Dawley rat assessed as survival time (treated/control) at 2.5 mg/kg/day, ip; type: functional; settings: route intraperitoneal
[9] = tested on: W256; assay: Antitumor activity against rat Walker 256 cells allografted in Sprague-Dawley rat assessed as animal survival days at 2.5 mg/kg/day, ip; type: functional; settings: route intraperitoneal

Row | SMILES | Activity [1] | Activity [2] [%] | Activity [3] [mL] | inhibition in vivo at 33 mg/kg [4] [%] | LD50 [5] [µmol/kg] | Survival [6] [days] | T/C [7] [%] | T/C [8] [%] | Survival [9] [days]
1 | C=COC(=O)CCCCCNC(=O)OCc1ccccc1 | Active | 36 | 0.6 | 75 | – | – | – | – | –
2 | C=COC(=O)[C@H](Cc1ccc(O)cc1)NS(=O)(=O)c1ccc(C)cc1 | Active | 17.5 | 1.9 | 75 | – | – | – | – | –
3 | N#CCOC(=O)[C@H](Cc1ccc(O)cc1)NC(=O)OCc1ccccc1 | Active | 31.1 | 4.5 | 0 | – | – | – | – | –
4 | N#CCOC(=O)CC[C@H](NC(=O)OCc1ccccc1)C(=O)OCC#N | Active | 32 | 3.2 | 35 | – | – | – | – | –
5 | Cc1ccc(S(=O)(=O)N[C@@H](Cc2ccccc2)C(=O)CCl)cc1 [TPCK] | – | 0.05 | 0.01 | 100 | – | – | – | – | –
6 | N#CCOC(=O)CCCCCNC(=O)OCc1ccccc1 | Active | 41 | 1 | 54 | – | – | – | – | –
7 | O=C(O)CCCNC(=O)OCc1ccccc1 | Active | 32.3 | 0.8 | 71 | – | – | – | – | –
8 | O=C(O)CC[C@H](NC(=O)OCc1ccccc1)C(=O)O | Active | 28 | 0.7 | 81 | 1780 | – | – | – | –
9 | N#CCOC(=O)[C@H](Cc1c[nH]c2ccccc12)NC(=O)OCc1ccccc1 | Active | 19.7 | 4.3 | 38 | – | – | – | – | –
10 | C=COC(=O)CC[C@H](NC(=O)OCc1ccccc1)C(=O)OC=C | Active | 37 | 0.9 | 69 | 1500 | – | – | – | –
11 | CC(C)C[C@H](NC(=O)OCc1ccccc1)C(=O)OC(Br)CBr (stereo partly specified) | Active | 14 | 0.002 | 99 | 500 | 9.1 | 112 | 113 | 8.5
12 | N#CCOC(=O)C[C@H](NC(=O)OCc1ccccc1)C(=O)OCC#N | – | 33 | 4.7 | 7 | – | – | – | – | –
13 | C#CCOC(=O)[C@H](CC(C)C)NC(=O)OCc1ccccc1 | Active | 23 | 0.5 | 85 | 1650 | 9.1 | 112 | – | –
14 | O=C(O)CNC(=O)OCc1ccccc1 | – | 22 | 0.2 | 97 | – | – | – | – | –
15 | N#CCOC(=O)[C@H](Cc1ccccc1)NC(=O)OCc1ccccc1 | Active | 0.1 | 0.2 | 99.9 | – | – | – | – | –
16 | C=COC(=O)[C@H](CC(C)C)NC(=O)OCc1ccccc1 | Active | 38 | 0.9 | 48 | – | – | – | – | –
17 | Cc1ccc(S(=O)(=O)N[C@@H](Cc2ccccc2)C(=O)OCC#N)cc1 | – | 3.4 | 0.4 | 97 | – | – | – | – | –
18 | O=C(CCCCCNC(=O)OCc1ccccc1)OC(Br)CBr (stereo unspecified) | – | 30 | 1.7 | 50 | – | – | – | – | –
19 | O=C(OC(Br)CBr)[C@@H]1CCCN1C(=O)OCc1ccccc1 (stereo partly specified) | Active | 10 | 2.1 | 84 | 190 | – | – | – | –
20 | C=COC(=O)CCCNC(=O)OCc1ccccc1 | Active | 39.5 | 3.2 | 6 | – | – | – | – | –
21 | O=Cc1ccccc1 [BENZALDEHYDE] | Active | 49 | 0.8 | 69 | – | – | – | – | –
22 | O=C(O)C[C@H](NC(=O)OCc1ccccc1)C(=O)O | Active | 21 | 3.7 | 31 | – | – | – | – | –
23 | N#CCOC(=O)CCCNC(=O)OCc1ccccc1 | – | 48.8 | 0.6 | 71 | – | – | – | – | –
24 | N#CCOC(=O)[C@H](Cc1ccccc1)NC(=O)c1ccccc1 | – | 13.2 | 1.8 | 47 | – | – | – | – | –

Row | SMILES | Activity [1] | Activity [2] [%] | Activity [3] [mL] | inhibition in vivo at 33 mg/kg [4] [%] | LD50 [5] [µmol/kg] | Survival [6] [days] | T/C [7] [%] | T/C [8] [%] | Survival [9] [days]
25 | C=COC(=O)[C@H](Cc1ccccc1)NC(=O)OCc1ccccc1 | Active | 0.4 | 0.1 | 99.9 | > 6150 | – | – | – | –
26 | N#CCOC(=O)CNC(=O)OCc1ccccc1 | Active | 44.7 | 2.2 | 29 | – | – | – | – | –
27 | C=COC(=O)CNC(=O)OCc1ccccc1 | Active | 34 | 1.5 | 63 | 2130 | – | – | – | –
28 | CC(C)C[C@H](NC(=O)OCc1ccccc1)C(=O)OCC#N | Active | 38 | 2.7 | 27 | – | – | – | – | –
29 | C#CCOC(=O)C[C@H](NC(=O)OCc1ccccc1)C(=O)OCC#C | Active | 21 | 3.7 | 31 | – | – | – | – | –
30 | N#CCOC(=O)[C@H](CCC(N)=O)NC(=O)OCc1ccccc1 | – | 40 | 2 | 51 | – | – | – | – | –
31 | C#CCOC(=O)CCCNC(=O)OCc1ccccc1 | Active | 34.5 | 2.3 | 20 | – | 6.7 | 83 | 305 | 23
32 | O=C(CNC(=O)OCc1ccccc1)OC(Br)CBr (stereo unspecified) | Active | 0 | 0 | 100 | 370 | 2.2 | 28 | 135 | 10.1
33 | Cc1ccc(S(=O)(=O)N[C@@H](Cc2ccc(OS(=O)(=O)c3ccc(C)cc3)cc2)C(=O)OCC#N)cc1 | Active | 6.5 | 0.8 | 53 | – | – | – | – | –
34 | O=C(O)[C@@H]1CCCN1C(=O)OCc1ccccc1 | Active | 32 | 1.9 | 53 | – | – | – | – | –
35 | Cc1ccc(S(=O)(=O)N[C@@H](Cc2ccc(O)cc2)C(=O)OCC#N)cc1 | – | 15.8 | 3.8 | 56 | 220 | – | – | – | –
36 | O=C(CCCNC(=O)OCc1ccccc1)OC(Br)CBr (stereo unspecified) | – | 2 | 0.6 | 98.7 | – | 8.1 | 100 | 226 | 18.1
37 | C=COC(=O)[C@H](Cc1ccccc1)NS(=O)(=O)c1ccc(C)cc1 | – | 19.2 | 3.8 | 56.8 | – | – | – | – | –
38 | C=COC(=O)[C@@H]1CCCN1C(=O)OCc1ccccc1 | – | 35 | 1 | 73 | 1820 | – | – | – | –
39 | CC=O | – | 56 | 2 | 43 | – | – | – | – | –
40 | C#CCOC(=O)CNC(=O)OCc1ccccc1 | Active | 27 | 5.2 | 0 | – | – | – | – | –
41 | O=C(O)CCCCCNC(=O)OCc1ccccc1 | Active | 33 | 1 | 63 | – | – | – | – | –
42 | O=c1[nH]cc(F)c(=O)[nH]1 [FLUOROURACIL] | – | – | – | – | – | 11 | 136 | – | –
43 | C=COC(=O)[C@H](Cc1c[nH]c2ccccc12)NC(=O)OCc1ccccc1 | Active | 14.3 | 1.3 | 87 | – | – | – | 106 | 8
44 | O=C(N[C@@H](Cc1ccccc1)C(=O)OC(Br)CBr)OCc1ccccc1 (stereo partly specified) | Active | 1.4 | 0 | 100 | – | – | – | – | –
45 | N[C@@H](Cc1ccc(N(CCCl)CCCl)cc1)C(=O)O | Active | 3 | 0.1 | 99 | – | – | – | 305 | 23
46 | C=COC(=O)[C@H](Cc1ccc(O)cc1)NC(=O)OCc1ccccc1 | Active | 29.7 | 3.9 | 16 | – | – | – | – | –
47 | Sc1ncnc2nc[nH]c12 [MERCAPTOPURINE ANHYDROUS] | Active | 0.3 | 0.7 | 99.6 | – | 12 | 148 | – | –
48 | C=COC(=O)[C@H](Cc1ccccc1)NC(=O)c1ccccc1 | Active | 9.8 | 2.1 | 56.8 | – | – | – | – | –
